# Columns and labels:
# [1] = tested on: Rabbit Psoas myofibrils (skeletal myosin ATPase); assay: Myofibril ATPase assay, rabbit psoas (skeletal) myofibrils; type: biochemical
# Outline: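 Rabbit psoas skeletal myofibrils in PIPES/CaCl2/EGTA pCa buffer, pH 7.0. ATPase rate followed by PK-LDH-coupled NADH loss at 340 nm, read every 1.5–2 min for 75 min. Slopes normalized to vehicle (100%) and fitted to a 4-parameter logistic; values are Y75 (25% inhibition) or Y125 (25% activation) concentrations.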
# [2] = target: T1, Porcine ventricle myofibrils (ventricular myosin ATPase) (Sus scrofa, UniProt P79293); assay: Myofibril ATPase assay, porcine ventricle myofibrils; type: biochemical, porcine (Yucatan minipigs)
# T1 construct: Myofibrils from porcine cardiac muscle was isolated from the left ventricle of Yucatan minipigs; tissue Exemplar Genetics; host or cells: left ventricle of Yucatan minipigs, myofibrils prepared in house
# T1 sequence (P79293 whole entry): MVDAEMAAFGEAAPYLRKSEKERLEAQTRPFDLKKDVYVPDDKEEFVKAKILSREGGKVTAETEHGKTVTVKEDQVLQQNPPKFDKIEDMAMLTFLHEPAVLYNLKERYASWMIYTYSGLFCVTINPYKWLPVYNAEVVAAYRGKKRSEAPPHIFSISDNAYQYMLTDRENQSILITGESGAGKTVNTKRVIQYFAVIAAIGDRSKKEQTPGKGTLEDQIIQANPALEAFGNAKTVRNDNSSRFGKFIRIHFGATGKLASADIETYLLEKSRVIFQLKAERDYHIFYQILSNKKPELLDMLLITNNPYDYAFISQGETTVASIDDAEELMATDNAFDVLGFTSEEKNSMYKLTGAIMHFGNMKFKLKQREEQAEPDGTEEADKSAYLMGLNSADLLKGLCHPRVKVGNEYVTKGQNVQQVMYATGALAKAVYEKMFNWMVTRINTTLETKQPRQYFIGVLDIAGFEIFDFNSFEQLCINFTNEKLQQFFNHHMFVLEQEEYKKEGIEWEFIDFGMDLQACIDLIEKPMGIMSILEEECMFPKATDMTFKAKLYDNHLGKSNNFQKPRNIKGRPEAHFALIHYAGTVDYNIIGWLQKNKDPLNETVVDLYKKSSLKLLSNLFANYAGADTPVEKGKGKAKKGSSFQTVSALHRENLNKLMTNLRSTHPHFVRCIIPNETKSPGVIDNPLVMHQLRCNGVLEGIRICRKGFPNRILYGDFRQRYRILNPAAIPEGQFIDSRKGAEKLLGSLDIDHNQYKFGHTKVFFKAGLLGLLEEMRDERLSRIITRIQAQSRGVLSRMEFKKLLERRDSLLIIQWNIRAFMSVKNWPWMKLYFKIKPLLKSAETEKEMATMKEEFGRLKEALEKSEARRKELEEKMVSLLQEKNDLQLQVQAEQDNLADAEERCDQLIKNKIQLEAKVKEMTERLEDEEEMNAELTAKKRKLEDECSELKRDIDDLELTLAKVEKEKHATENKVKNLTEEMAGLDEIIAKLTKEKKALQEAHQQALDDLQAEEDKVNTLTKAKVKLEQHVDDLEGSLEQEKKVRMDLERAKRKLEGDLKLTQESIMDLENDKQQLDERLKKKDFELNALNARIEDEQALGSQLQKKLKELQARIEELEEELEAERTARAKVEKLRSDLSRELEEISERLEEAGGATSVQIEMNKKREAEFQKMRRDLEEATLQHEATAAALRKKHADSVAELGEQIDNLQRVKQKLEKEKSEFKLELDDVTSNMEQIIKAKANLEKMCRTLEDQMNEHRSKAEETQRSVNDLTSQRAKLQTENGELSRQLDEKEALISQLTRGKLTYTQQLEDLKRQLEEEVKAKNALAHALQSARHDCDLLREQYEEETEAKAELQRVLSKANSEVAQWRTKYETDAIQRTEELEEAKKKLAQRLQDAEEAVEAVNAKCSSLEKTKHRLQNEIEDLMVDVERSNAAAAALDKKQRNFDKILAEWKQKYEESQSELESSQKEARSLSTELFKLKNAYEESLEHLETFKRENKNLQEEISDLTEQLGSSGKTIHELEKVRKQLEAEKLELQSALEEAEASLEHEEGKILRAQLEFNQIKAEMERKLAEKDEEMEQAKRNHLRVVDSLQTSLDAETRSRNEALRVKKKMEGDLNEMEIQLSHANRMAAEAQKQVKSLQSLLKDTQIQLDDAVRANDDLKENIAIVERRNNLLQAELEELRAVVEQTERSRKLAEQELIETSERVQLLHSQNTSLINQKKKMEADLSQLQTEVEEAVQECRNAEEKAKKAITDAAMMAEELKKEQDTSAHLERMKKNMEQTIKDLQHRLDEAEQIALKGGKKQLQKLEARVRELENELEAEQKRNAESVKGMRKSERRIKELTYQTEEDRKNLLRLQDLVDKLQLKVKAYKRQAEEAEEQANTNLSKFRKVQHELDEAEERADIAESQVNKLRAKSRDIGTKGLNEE
# Outline: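 Read-out: A340 kinetic, NADH consumption coupled to ADP via PK-LDH, 75 min. Yucatan minipig LV myofibrils, pCa buffer (PIPES/CaCl2/EGTA, pH 7.0). Linear-regression slope (mAU/min), vehicle = 100%, 4PL fit; Y75 or Y125 reported.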
# [3] = tested on: Porcine atria myofibrils (atrial myosin ATPase); assay: Myofibril ATPase assay, porcine atria myofibrils; type: biochemical
# Outline: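 Coupled PK-LDH reaction links ADP from myosin ATPase to NADH loss, read at 340 nm every 1.5-2 min for 75 min. Slopes (mAU/min) normalized to vehicle-only wells (100%) and fit to a 4-parameter logistic; Y75 is the concentration cutting activity by 25%, Y125 is reported for activators.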
# [4] = Y75 value (no ‡ mark), rabbit psoas myofibrils
# [5] = Y75 value (no ‡ mark), porcine ventricle myofibrils
# [6] = Y75 value (no ‡ mark), porcine atria myofibrils
# [7] = rabbit psoas myofibrils, Y75 value
# [8] = porcine ventricle myofibrils, Y75 value
# [9] = porcine atria myofibrils, Y75 value (75% activity relative to no compound)
# [10] = ‡ Y125 value, not a Y75 value (125% activity relative to no compound), porcine ventricle myofibrils
# [11] = ‡ Y125 value, not a Y75 value (125% activity relative to no compound), rabbit psoas myofibrils
smiles,measurement,setting,value
Cc1nc(C#N)ccc1[C@@H](C)NC(=O)Cc1c(C)c2cc(F)ccc2[nH]c1=O [compound 1050],Skeletal EC25,[1]; [4],3.4 µM
same,Ventricular EC25,[2]; [5],2.36 µM
same,Atrial EC25,[3]; [6],0.22 µM
"Cc1c(C2(C(=O)N[C@@H](C)c3ncc(C#N)cc3F)CC2)c(=O)[nH]c2ccc(F)c(C(F)(F)F)c12 (single isomer, unassigned) [compound 4802]",Skeletal EC25,[1]; [4],0.14 µM
same,Ventricular EC25,[2]; [5],1.00 µM
same,Atrial EC25,[3]; [6],0.20 µM
"Cc1c(CC(=O)N[C@H](CO)c2ccc(C#N)cc2F)c(=O)[nH]c2ccnc(C#N)c12 (single isomer, unassigned) [compound 241]",Skeletal EC25,[1]; [7],0.17 µM
same,Ventricular EC25,[2]; [8],4.21 µM
same,Atrial EC25,[3]; [9],0.69 µM
"O=C(Cc1cc2c(F)c(F)ccc2[nH]c1=O)N[C@@H]1COc2ncccc21 (single isomer, unassigned) [compound 63]",Skeletal EC25,[1]; [4],1.55 µM
same,Ventricular EC25,[2]; [5],62.72 µM
same,Atrial EC25,[3]; [6],0.42 µM
Cc1cc([C@@H](C)NC(=O)Cc2cc3c(C#N)nccc3[nH]c2=O)ncc1F [compound 470],Skeletal EC25,[1]; [7],9.89 µM
same,Ventricular EC25,[2]; [8],100.00 µM
same,Atrial EC25,[3]; [9],100.00 µM
Cc1c(CC(=O)N[C@H](C)c2ccc(C#N)cn2)c(=O)[nH]c2cccc(F)c12 [compound 53],Skeletal EC25,[1]; [4],0.31 µM
same,Ventricular EC25,[2]; [5],6.53 µM
same,Atrial EC25,[3]; [6],1.93 µM
"Cc1ccc2[nH]c(=O)c(CC(=O)N[C@@H](C)c3ncc(C#N)cn3)cc2c1F (single isomer, unassigned) [compound 2014]",Skeletal EC25,[1]; [4],100.00 µM
same,Ventricular EC25,[2]; [10],100.00‡ μM
same,Atrial EC25,[3]; [6],100.00 µM
"Cc1cc(F)cnc1[C@H](C)NC(=O)C1(c2cc3c(F)c(F)ccc3[nH]c2=O)CC1 (single isomer, unassigned) [compound 4806]",Skeletal EC25,[1]; [4],2.39 µM
same,Ventricular EC25,[2]; [5],33.85 µM
same,Atrial EC25,[3]; [6],0.71 µM
"Cc1c(CC(=O)N[C@@H](C)c2ncc(C#N)cc2F)c(=O)[nH]c2ccnc(C#N)c12 (single isomer, unassigned) [compound 285]",Skeletal EC25,[1]; [7],0.02 µM
same,Ventricular EC25,[2]; [8],0.16 µM
same,Atrial EC25,[3]; [9],0.28 µM
"C[C@H](NC(=O)[C@@H](C)c1cc2c(F)nccc2[nH]c1=O)c1ccc(F)cc1F (single isomer, unassigned) [compound 367]",Skeletal EC25,[1]; [7],0.29 µM
same,Ventricular EC25,[2]; [8],36.08 µM
same,Atrial EC25,[3]; [9],2.23 µM
"C[C@H](NC(=O)Cc1cc2c(C#N)cccc2[nH]c1=O)c1ncc(C#N)cn1 (single isomer, unassigned) [compound 2038]",Skeletal EC25,[1]; [4],100.00 µM
same,Ventricular EC25,[2]; [5],100.00 µM
same,Atrial EC25,[3]; [6],100.00 µM
"C[C@H](NC(=O)Cc1cc2c(F)c(F)ccc2[nH]c1=O)c1nc(C#N)cs1 (single isomer, unassigned) [compound 4008]",Skeletal EC25,"[1]; Y75 value: concentration required to reduce myosin ATP-ase activity by 25%, Rabbit Psoas Prep pCa 25 GEOM_MEAN",4.42 µM
same,Ventricular EC25,"[2]; Y75 value: concentration required to reduce myosin ATP-ase activity by 25%, Porcine Ventricle Prep pCa 25 GEOM_MEAN",2.08 µM
same,Atrial EC25,"[3]; Y75 value: concentration required to reduce myosin ATP-ase activity by 25%, Porcine Atria Prep pCa 25 GEOM_MEAN",2.24 µM
"O=C(Cc1cc2cc(F)ccc2[nH]c1=O)N1CC[C@@H]2C[C@H]1c1ccccc12 (single isomer, unassigned) [compound 4503]",Skeletal EC25,[1]; [4],1.29 µM
same,Ventricular EC25,[2]; [5],2.98 µM
same,Atrial EC25,[3]; [6],11.52 µM
Cc1c(CC(=O)N[C@@H](C)c2ncc(C#N)cc2F)c(=O)[nH]c2ccc(F)cc12 [compound 1107],Skeletal EC25,[1]; [4],0.03 µM
same,Ventricular EC25,[2]; [5],0.15 µM
same,Atrial EC25,[3]; [6],0.12 µM
"N#Cc1cc(F)c2c(c1)OC[C@H]2NC(=O)C1(c2cc3c(F)c(F)ccc3[nH]c2=O)CC1 (single isomer, unassigned) [compound 4821]",Skeletal EC25,[1]; [4],20.88 µM
same,Ventricular EC25,[2]; [5],100.00 µM
same,Atrial EC25,[3]; [6],0.44 µM
Cc1c(CC(=O)N[C@@H](C)c2ccc(F)cc2F)c(=O)[nH]c2ccc(Br)cc12 [compound 120],Skeletal EC25,[1]; [4],0.05 µM
same,Ventricular EC25,[2]; [5],0.25 µM
same,Atrial EC25,[3]; [6],0.04 µM
Cc1ccc2[nH]c(=O)c(CC(=O)N[C@H](C)c3ncc(C#N)cc3F)c(C)c2n1 [compound 468],Skeletal EC25,[1]; [7],4.03 µM
same,Ventricular EC25,[2]; [8],1.48 µM
same,Atrial EC25,[3]; [9],0.80 µM
"C[C@@H](NC(=O)Cc1cc2ccc(F)cc2[nH]c1=O)c1ncc(C#N)cn1 (single isomer, unassigned) [compound 2033]",Skeletal EC25,[1]; [4],24.12 µM
same,Ventricular EC25,[2]; [5],100.00 µM
same,Atrial EC25,[3]; [6],100.00 µM
C[C@H](NC(=O)Cc1c(C2CC2)c2cc(C#N)ccc2[nH]c1=O)c1ncc(C#N)cc1F [compound 1152],Skeletal EC25,[1]; [4],3.82 µM
same,Ventricular EC25,[2]; [5],7.78 µM
same,Atrial EC25,[3]; [6],59.91 µM
"Cc1c([C@H](C)C(=O)N[C@@H](C)c2ncc(C#N)cc2F)c(=O)[nH]c2ccc(F)c(F)c12 (single isomer, unassigned) [compound 2603]",Skeletal EC25,[1]; [4],0.03 µM
same,Ventricular EC25,[2]; [5],0.21 µM
same,Atrial EC25,[3]; [6],0.06 µM
"Cc1nccc2[nH]c(=O)c([C@@H](C)C(=O)N[C@H](C)c3ncc(C#N)cc3F)c(C)c12 (single isomer, unassigned) [compound 191]",Skeletal EC25,[1]; [7],4.04 µM
same,Ventricular EC25,[2]; [8],100.00 µM
same,Atrial EC25,[3]; [9],1.73 µM
"Cc1c(CC(=O)N[C@H](C)c2ncc(C#N)cn2)c(=O)[nH]c2ccc(F)c(Cl)c12 (single isomer, unassigned) [compound 2055]",Skeletal EC25,[1]; [4],0.11 µM
same,Ventricular EC25,[2]; [5],0.26 µM
same,Atrial EC25,[3]; [6],0.06 µM
"Cc1c(C2(C(=O)N[C@@H]3CCc4cc(C#N)cnc43)CC2)c(=O)[nH]c2ccc(F)c(F)c12 (single isomer, unassigned) [compound 4803]",Skeletal EC25,[1]; [4],0.27 µM
same,Ventricular EC25,[2]; [5],100.00 µM
same,Atrial EC25,[3]; [6],100.00 µM
C[C@H](NC(=O)Cc1cc2nc(Cl)ccc2[nH]c1=O)c1ccc(F)cc1F [compound 388],Skeletal EC25,[1]; [7],0.67 µM
same,Ventricular EC25,[2]; [8],38.06 µM
same,Atrial EC25,[3]; [9],1.08 µM
"Cc1nccc2[nH]c(=O)c(CC(=O)N[C@@H](CCO)c3ccc(F)cc3F)c(C)c12 (single isomer, unassigned) [compound 342]",Skeletal EC25,[1]; [7],11.14 µM
same,Ventricular EC25,[2]; [8],52.00 µM
same,Atrial EC25,[3]; [9],3.65 µM
"Cc1nccc2[nH]c(=O)c(CC(=O)N[C@H]3c4c(F)cc(F)cc4OC3(C)C)c(C)c12 (single isomer, unassigned) [compound 189]",Skeletal EC25,[1]; [7],0.87 µM
same,Ventricular EC25,[2]; [8],13.14 µM
same,Atrial EC25,[3]; [9],1.22 µM
"Cc1c(CC(=O)N[C@H](C)c2ccc(C#N)nn2)c(=O)[nH]c2ccc(F)c(C3CC3)c12 (single isomer, unassigned) [compound 2057]",Skeletal EC25,[1]; [4],0.27 µM
same,Ventricular EC25,[2]; [5],0.94 µM
same,Atrial EC25,[3]; [6],0.65 µM
"N#Cc1cnc2c(c1)OC[C@@H]2NC(=O)Cc1cc2c(F)c(F)ccc2[nH]c1=O (single isomer, unassigned) [compound 14]",Skeletal EC25,[1]; [4],0.07 µM
same,Ventricular EC25,[2]; [5],0.34 µM
same,Atrial EC25,[3]; [6],0.21 µM
"Cc1ccc([C@@H](CO)NC(=O)Cc2c(C)c3c(C)nccc3[nH]c2=O)cc1 (single isomer, unassigned) [compound 335]",Skeletal EC25,[1]; [7],26.39 µM
same,Ventricular EC25,[2]; [8],100.00 µM
same,Atrial EC25,[3]; [9],100.00 µM
"C[C@H](NC(=O)Cc1cc2c(C#N)c(F)ccc2[nH]c1=O)c1ncc(C#N)cn1 (single isomer, unassigned) [compound 2018]",Skeletal EC25,[1]; [11],100.00‡ μM
same,Ventricular EC25,[2]; [10],100.00‡ μM
same,Atrial EC25,"[3]; ‡ Y125 value, not a Y75 value (125% activity relative to no compound), porcine atria myofibrils",100.00‡ μM
"Cc1c(C2(C(=O)NC(C)c3cccc(C#N)n3)CC2)c(=O)[nH]c2ccc(F)cc12 (single isomer, unassigned) [Compound 2580]",Skeletal EC25,[1]; [11],17.17‡ μM
same,Ventricular EC25,[2]; [5],100.00 µM
same,Atrial EC25,[3]; [6],4.52 µM
"C[C@H](NC(=O)C1(c2cc3c(F)c(F)ccc3[nH]c2=O)CC1)c1ccc(C#N)cn1 (single isomer, unassigned) [compound 4810]",Skeletal EC25,[1]; [4],100.00 µM
same,Ventricular EC25,[2]; [5],100.00 µM
same,Atrial EC25,[3]; [6],1.90 µM
C[C@H](NC(=O)Cc1c(C2CC2)c2cc(F)ccc2[nH]c1=O)c1ccc(F)cc1F [compound 114],Skeletal EC25,[1]; [4],0.06 µM
same,Ventricular EC25,[2]; [5],4.54 µM
same,Atrial EC25,[3]; [6],3.86 µM
"Cc1nccc2[nH]c(=O)c([C@@H](C)C(=O)N[C@@H](C)c3ccc(F)cc3F)c(C)c12 (single isomer, unassigned) [compound 399]",Skeletal EC25,[1]; [7],0.30 µM
same,Ventricular EC25,[2]; [8],18.33 µM
same,Atrial EC25,[3]; [9],0.91 µM
"Cc1c(C(F)(F)C(=O)N[C@@H](C)c2ncc(C#N)cn2)c(=O)[nH]c2ccc(F)cc12 (single isomer, unassigned) [compound 2595]",Skeletal EC25,[1]; [4],0.17 µM
same,Ventricular EC25,[2]; [5],0.45 µM
same,Atrial EC25,[3]; [6],0.36 µM
